Laboratory results taken from US8841233B2, “Herbicidal compositions comprising 4-amino-3-chloro-5-fluoro-6-(4-chloro-2-fluoro-3-methoxyphenyl) pyridine-2-carboxylic acid or a derivative thereof and 4-hydroxyphenyl-pyruvate dioxygenase (HPPD) inhibitors” (Dow Agrosciences LLC, priority 2012, dated 2014).

Key:
[1] = system: DIGSA; test: Post-emergence foliar-applied weed control, greenhouse (Example I); type: in vivo, Digitaria sanguinalis (L.) Scop.
Description: Evaluation of Post-emergence Foliar-Applied Herbicidal Mixtures for Weed Control in Direct Seeded Rice
Seeds or nutlets of the desired test plant species were planted in a soil matrix prepared by mixing a loam or sandy loam soil (e.g., 28.6 percent silt, 18.8 percent clay, and 52.6 percent sand, with a pH of about 5.8 and an organic matter content of about 1.8 percent) and calcareous grit in an 80 to 20 ratio. The soil matrix was contained in plastic pots with a volume of 1 quart and a surface area of 83.6 square centimeters (cm^2). When required to ensure good germination and healthy plants, a fungicide treatment and/or other chemical or physical treatment was applied. The plants were grown for 8-22 days in a greenhouse with an approximate 14 h photoperiod which was maintained at about 29° C. during the day and 26° C. during the night. Nutrients (Peters Excel® 15-5-15 5-Ca 2-Mg and iron chelate) were applied in the irrigation solution as needed and water was added on a regular basis. Supplemental lighting was provided with overhead metal halide 1000-Watt lamps as necessary. The plants were employed for testing when they reached the first through fourth true leaf stage.
(§1) Treatments consisted of the acid or esters of 4-amino-3-chloro-5-fluoro-6-(4-chloro-2-fluoro-3-methoxy-phenyl)pyridine-2-carboxylic acid (Compound A), each formulated as an SC (suspension concentrate), and various herbicidal components alone and in combination. Forms of Compound A were applied on an acid equivalent basis.
Other herbicidal components were applied on an active ingredient basis and included 4-hydroxyphenyl pyruvate dioxygenase (HPPD)-inhibiting herbicides mesotrione formulated as Callisto®, sulcotrione formulated as Mikado®, pyrazolynate formulated as Sunbird® 10% GR, and benzobicyclon formulated as Benzobicyclon 3.5%.
(§2) Treatment requirements were calculated based upon the rates being tested, the concentration of active ingredient or acid equivalent in the formulation, and a 12 mL application volume at a rate of 187 L/ha.
(§3) For treatments comprised of formulated compounds, measured amounts of compounds were placed individually in 25 mL glass vials and diluted in a volume of 1.25% (v/v) Agri-Dex® crop oil concentrated to obtain 12× stock solutions. […] Application solutions were prepared by adding an appropriate amount of each stock solution (e.g., 1 mL) and diluted to the appropriate final concentrations with the addition of 10 mL of an aqueous mixture of 1.25% (v/v) crop oil concentrate so that the final spray solutions contained 1.25+/−0.05% (v/v) crop oil concentrate.
For treatments comprised of formulated and technical compounds, weighed amounts of the technical materials were placed individually in 25 mL glass vials and dissolved in a volume of 97:3 v/v acetone/DMSO to obtain 12× stock solutions, and measured amounts of the formulated compounds were placed individually in 25 mL glass vials and diluted in a volume of 1.5% (v/v) crop oil concentrate or water to obtain 12× stock solutions. […] Application solutions were prepared by adding an appropriate amount of each stock solution (e.g., 1 mL) and diluted to the appropriate final concentrations with the addition of an appropriate amount of an aqueous mixture of 1.5% (v/v) crop oil concentrate so that the final spray solutions contained 1.25% (v/v) crop oil concentrate. As required, additional water and/or 97:3 v/v acetone/DMSO was added to individual application solutions so that the final acetone and DMSO concentrations of the application solutions being compared were 8.1% and 0.25%, respectively.
All stock solutions and applications solutions were visually inspected for compound compatibility prior to application. Spray solutions were applied to the plant material with an overhead Mandel track sprayer equipped with a 8002E nozzles calibrated to deliver 187 L/ha over an application area of 0.503 m^2 at a spray height of 18 to 20 inches (46 to 50 cm) above average plant canopy height. […]

[2] = system: SETVI; test: Pre-emergence soil-applied weed control, greenhouse (Example III); type: in vivo, Setaria viridis (L.) Beauv.
Description: Evaluation of Pre-emergence Soil-Applied Herbicidal Mixtures for Weed Control
Seeds or nutlets of the desired test plant species were planted in a soil matrix prepared by mixing a loam soil (32 percent silt, 23 percent clay, and 45 percent sand, with a pH of about 6.5 and an organic matter content of about 1.9 percent) and calcareous grit in an 80 to 20 ratio. The soil matrix was contained in plastic pots with a volume of 1 quart and a surface area of 83.6 square centimeters (cm^2).
as §1, with “benzyl ester” for “acid or esters”, “(compound A)” for “(Compound A), each”, “concentrate)” for “concentrate),”, “compound” for “Compound”
Other herbicidal components were applied on an acid equivalent or active ingredient basis and included the 4-hydroxyphenyl pyruvate dioxygenase (HPPD)-inhibiting herbicide, isoxaflutole, formulated as Balance Pro®.
as §2
as §3, with “oil concentrate (COC)” for “oil concentrated”, “(v/v) COC” for “(v/v) crop oil concentrate”, “contained 1.25%” for “contained 1.25+/−0.05%”, “(v/v) COC.” for “(v/v) crop oil concentrate.”
All stock solutions and applications solutions were visually inspected for compound compatibility prior to application. Spray solutions were applied to the soil with an overhead Mandel track sprayer equipped with a 8002E nozzles calibrated to deliver 187 L/ha over an application area of 0.503 m^2 at a spray height of 18 inches (46 cm) above average pot height. Control pots were sprayed in the same manner with the solvent blank.
The treated and control pots were placed in a greenhouse and top watered as needed. When required to ensure good germination and healthy plants, a fungicide treatment and/or other chemical or physical treatment was applied. […] After approximately 4 weeks, the condition of the test plants as compared with that of the untreated plants was determined visually and scored on a scale of 0 to 100 percent where 0 corresponds to no injury or growth inhibition and 100 corresponds to complete kill. […]

Row | SMILES | Visual Weed Control (%) - 20 DAA DIGSA Obs ([1]; 4.38 gae/ha) | Visual Weed Control (%) - 20 DAA DIGSA Obs ([1]; 8.75 gae/ha) | Visual Weed Control (%) - 20 DAA DIGSA Obs ([1]; 17.5 gae/ha) | Visual Weed Control (%) - 32 DAA SETVI Obs ([2]; 16 gae/ha) | Visual Weed Control (%) - 32 DAA SETVI Obs ([2]; 32 gae/ha) | Visual Weed Control (%) - 20 DAA DIGSA Obs ([1]; 35 gae/ha)
1 | COc1c(Cl)ccc(-c2nc(C(=O)O)c(Cl)c(N)c2F)c1F [Compound A Acid, 4-amino-3-chloro-6-(4-chloro-2-fluoro-3-methoxyphenyl)-5-fluoropyridine-2-carboxylic acid] | 40% | 45% | 45% |  |  | 
2 | COc1c(Cl)ccc(-c2nc(C(=O)OCc3ccccc3)c(Cl)c(N)c2F)c1F [Compound A Benzyl Ester, benzyl ester of 4-amino-3-chloro-5-fluoro-6-(4-chloro-2-fluoro-3-methoxy-phenyl)pyridine-2-carboxylic acid] | 25% | 40% | 50% | 0% | 13% | 38%
